# Measurements: the OPERA property sets (Mansouri et al. 2018)
# Non-standard residues stand in square brackets, D forms with d. Residues, ends and D or L forms follow the SMILES beside them.
row,Compound,logP
1,Cn1c([N+](=O)[O-])cnc1COC(N)=O,-0.38
2,CCNP(=O)(OCC)ON=C(C#N)c1ccc(OC)cc1 (stereo unspecified),2.39
3,CCCCc1ccc(OCC(OC(=O)n2ccnc2)C(C)(C)C)cc1 (stereo unspecified),4.97
4,Cc1ccc(C)c(Oc2cccc(C(=O)NC(C)(C)C)c2)c1,4.78
5,CN(Cc1ccccc1)C(=O)C(Cc1ccccc1)NC(=O)C(Cc1cn(C(=O)OCc2ccccc2)c2ccccc12)NC(=O)CC1NC(=O)C2C3CCC(CC3)N2C1=O (stereo unspecified),5.66
6,O=c1[nH]c(=O)n(C2OC(CO)CC2F)cc1Cl (stereo unspecified),-0.28
7,CCOC(=O)OCn1cc(F)c(=O)[nH]c1=O,-0.04
8,CCCCCCn1ccc(=O)c(O)c1CC,2.28
9,CNC12CCCCC1CSc1ccccc12 (stereo unspecified),3.88
10,S=C=Nc1cccc(Cl)c1,3.36
11,CCc1c(O)c(=O)ccn1C(C)C,0.73
12,Cc1ccc(C)c(C)c1C,4
13,CCCCCCN(C)C(=O)c1cccc(Oc2ccccc2)c1,5.01
14,NS(=O)(=O)c1cc2c(cc1Cl)N=C(Cc1ccccc1)NS2(=O)=O,1.7
15,CC(=O)N[C@H](Cc1ccccc1)C(=O)N[C@H](Cc1ccccc1)C(N)=O (Ac-[dF]-[dF]-NH2),1.19
16,CCOC(=O)c1cnc2n(c1=O)CCCC2,0.15
17,CCc1c(O)c(=O)ccn1CC,0.25
18,CCN(CC)CCC(=O)c1sc(N)nc1C,1.76
19,CCOc1ccc(C=NNC(=N)N)cc1,0.24
20,Cc1ccc(OCC(OC(=S)n2ccnc2)C(C)(C)C)cc1 (stereo unspecified),4.66
21,COCN(C#N)C1CC(OC2CC(O)(C(C)=O)Cc3c(O)c4c(c(O)c32)C(=O)c2c(OC)cccc2C4=O)OC(C)C1O (stereo unspecified),2.64
22,CCNc1nc(C)c(C(=O)CCN(C)C)s1,2.21
23,CC(C)NC(=N)NC(=N)Nc1ccc(Cl)cc1,2.53
24,CCOC(=O)C1(c2ccccc2)CCN(CCC(O)c2ccccc2)CC1 (stereo unspecified),4.04
25,O=CNCC#CCC(NC(=O)C(Cc1ccc2ccccc2c1)Cc1cccc2ccccc12)C(=O)NC(CC1CCCCC1)C(O)CC(=O)NCCN1CCOCC1 (stereo unspecified),5.44
26,CCc1nc2cccc(C)n2c(=O)c1C,1.87

row,Compound,logP
1,CCCCC(=O)OC1C(CO)OC(n2cnc3c(OC)ncnc32)C1OC(=O)CCCC (stereo unspecified),3.83
2,c1ccc(C2(N3CCCCC3)CCCCC2)cc1,4.69
3,Cc1c(O)c(=O)ccn1C,-0.77
4,CCNP(=O)(OCC)ON=C(C#N)c1ccc([N+](=O)[O-])cc1 (stereo unspecified),1.76
5,CCC(=O)O[C@]1(C(=O)CCl)[C@@H](C)C[C@H]2[C@@H]3CCC4=CC(=O)C=C[C@]4(C)[C@@]3(F)[C@@H](O)C[C@@]21C,3.5
6,COc1cccc2c1C(=O)c1c(O)c3c(c(O)c1C2=O)CC(O)(C(C)=O)CC3OC1CC(N(CC#N)CC(=O)O)C(O)C(C)O1 (stereo unspecified),0.03
7,Cc1cc(C)c(C)c(C)c1,4.1
8,CCN(CC)C(=O)Nc1ccc(OCC(O)CNC(C)(C)C)c(C(C)=O)c1 (stereo unspecified),1.92
9,CC(C)c1ccc(N)cc1,2.49
10,COC(=O)c1c(C)[nH]c(-c2ccc(Cl)cn2)c1C(=O)OC,2.7
11,COc1ccc(Cn2cc(F)c(=O)[nH]c2=O)cc1,1.04
12,Nc1ccc(C(F)(F)F)cc1,1.95
13,CC(C)(C)C(COc1ccc([N+](=O)[O-])cc1)OC(=O)n1ccnc1 (stereo unspecified),3.35
14,CNC(=O)CCn1ccc(=O)c(O)c1C,-1.1
15,CCOP(=O)(O)Cc1ccc(F)cc1,1.25
16,O=C(O)Cc1ccc(O)c(O)c1,0.98
17,Cc1nn(-c2ccccc2)c(Nc2ccc([N+](=O)[O-])cc2)c1[N+](=O)[O-],2.78
18,O=C(O)Cc1cc(O)ccc1O,0.86
19,CC1=NS(=O)(=O)c2cc(S(N)(=O)=O)c(Cl)cc2N1,0.03
20,NC(=O)NCCCCn1nc(-c2ccccc2)ccc1=O,1.21
21,CC(C(O)c1ccccc1)N(C)C (stereo unspecified),1.7
22,Clc1cccc(-c2cc(Cl)cc(Cl)c2)c1,5.81
23,O=c1c2c(nc3n1CCC3)CCCC2,0.83
24,Clc1ccccc1,2.84
25,NS(=O)(=O)c1cc2c(cc1C(F)(F)C(F)(F)F)N=CNS2(=O)=O,1.05
